Data reported in ChEMBL document CHEMBL4308839, “Recent Progress in the Discovery of Allosteric Inhibitors of Kidney-Type Glutaminase” (J Med Chem, 2018).

target: T1, Glutaminase kidney isoform, mitochondrial (Homo sapiens, UniProt O94925); assay: Inhibition of human KGA (1 to 669 residues) preincubated for 20 mins using 7 mM glutamine as substrate
T1 sequence (O94925 whole entry): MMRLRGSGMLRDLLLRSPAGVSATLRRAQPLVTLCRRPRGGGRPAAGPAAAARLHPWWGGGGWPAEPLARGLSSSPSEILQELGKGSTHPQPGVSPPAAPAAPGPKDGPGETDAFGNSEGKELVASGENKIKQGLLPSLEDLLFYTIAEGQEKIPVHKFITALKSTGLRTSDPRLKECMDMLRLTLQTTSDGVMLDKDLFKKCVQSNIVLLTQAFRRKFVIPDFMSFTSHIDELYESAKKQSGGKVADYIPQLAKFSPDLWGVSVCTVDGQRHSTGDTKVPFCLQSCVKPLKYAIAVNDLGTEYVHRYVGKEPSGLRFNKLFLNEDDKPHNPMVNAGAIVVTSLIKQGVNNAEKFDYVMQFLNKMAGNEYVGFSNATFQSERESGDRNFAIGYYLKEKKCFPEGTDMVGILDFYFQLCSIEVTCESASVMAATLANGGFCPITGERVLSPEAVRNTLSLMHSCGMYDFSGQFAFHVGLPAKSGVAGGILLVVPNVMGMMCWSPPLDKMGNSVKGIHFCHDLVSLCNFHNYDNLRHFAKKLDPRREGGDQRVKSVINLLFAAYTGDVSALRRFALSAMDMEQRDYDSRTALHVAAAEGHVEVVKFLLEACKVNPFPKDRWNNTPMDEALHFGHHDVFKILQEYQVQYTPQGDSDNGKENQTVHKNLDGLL

| IC50 | Structure (SMILES) |
| --- | --- |
| 10200 nM | O=C(Nc1nnc(CCOCCc2nnc(NC(=O)c3ccccc3)s2)s1)c1ccccc1 |

target: T1, Glutaminase kidney isoform, mitochondrial; assay: Inhibition of GAC (unknown origin) assessed as NADH formation using 1.8 to 13 mM glutamine as substrate preincubated for 60 mins by resorufin dye based assay

| Structure (SMILES) | IC50 |
| --- | --- |
| O=C(Cc1ccccn1)Nc1nnc(C2CCCCC(c3nnc(NC(=O)Cc4ccccn4)s3)C2)s1 (centres undefined) | 1000 to 2000 nM |
| O=C(Cc1ccccn1)Nc1nnc([C@@H]2CC[C@@H](c3nnc(NC(=O)Cc4ccccn4)s3)C2)s1 | < 100 nM |
| CC(=O)Nc1ccc([C@@H]2CCC[C@H](c3ccc(NC(C)=O)nn3)C2)nn1 | < 100 nM |
| O=C(Cc1ccccn1)Nc1nnc(CC2CCC(Cc3nnc(NC(=O)Cc4ccccn4)s3)C2)s1 (centres undefined) | 2000 to 10000 nM |
| O=C(Cc1ccccn1)Nc1nnc([C@@H]2CCC[C@H](c3nnc(NC(=O)Cc4ccccn4)s3)C2)s1 | 1000 to 2000 nM |
| O=C(Cc1ccccn1)Nc1nnc([C@H]2CCC[C@H](c3nnc(NC(=O)Cc4ccccn4)s3)C2)s1 | < 100 nM |
| O=C(Cc1ccccn1)Nc1nnc(C[C@@H]2C[C@H]2Cc2nnc(NC(=O)Cc3ccccn3)s2)s1 (racemic) | 500 to 1000 nM |
| O=C(Cc1c[nH]c2ccccc12)Nc1nnc(CCCCc2nnc(NC(=O)Cc3c[nH]c4ccccc34)s2)s1 | < 100 nM |
| O=C(Cc1ccccn1)Nc1nnc(C[C@H]2CC[C@H](Cc3nnc(NC(=O)Cc4ccccn4)s3)CC2)s1 | 500 to 1000 nM |
| O=C(Cc1ccccn1)Nc1ccc([C@@H]2CCC[C@H](c3ccc(NC(=O)Cc4ccccn4)nn3)C2)nn1 | < 100 nM |
| O=C(Cc1ccccn1)Nc1nnc(CC2CC(Cc3nnc(NC(=O)Cc4ccccn4)s3)C2)s1 (centres undefined) | 2000 to 10000 nM |
| O=C(Cc1ccccc1)Nc1nnc([C@H]2CCC[C@H](c3nnc(NC(=O)Cc4ccccc4)s3)C2)s1 | < 100 nM |
| O=C(Cc1ccccn1)Nc1ccc([C@H]2CCC[C@H](c3ccc(NC(=O)Cc4ccccn4)nn3)C2)nn1 | < 100 nM |
| O=C(Cc1ccccn1)Nc1nnc([C@@H]2CCC[C@@H](c3nnc(NC(=O)Cc4ccccn4)s3)C2)s1 | 1000 to 2000 nM |

Next, values leading:

| IC50 | Structure (SMILES) |
| --- | --- |
| 2000 to 10000 nM | CC(=O)Nc1ccc([C@H]2CCC[C@H](c3ccc(NC(C)=O)nn3)C2)nn1 |
| < 100 nM | O=C(CCCC(=O)c1ccccc1)Nc1nnc(CCCCc2nnc(NC(=O)CCCC(=O)c3ccccc3)s2)s1 |
| < 100 nM | O=C(Cc1ccccn1)Nc1nnc([C@H]2CC[C@H](c3nnc(NC(=O)Cc4ccccn4)s3)C2)s1 |
| 500 to 1000 nM | O=C(Cc1ccccn1)Nc1nnc([C@@H]2CC[C@H](c3nnc(NC(=O)Cc4ccccn4)s3)C2)s1 |

target: T1, Glutaminase kidney isoform, mitochondrial; assay: Inhibition of GAC (unknown origin) assessed as NADH formation using 10 mM glutamine as substrate preincubated for 60 mins

| IC50 | Structure (SMILES) |
| --- | --- |
| 80 nM | O=C(Cc1ccccc1)Nc1ccc(CCCCc2nnc(NC(=O)Cc3ccccc3)s2)nn1 |
| 240 nM | CN(C)c1ccc(CC(=O)Nc2nnc(CCCCc3nnc(NC(=O)Cc4ccc(N(C)C)cc4)s3)s2)cc1 |
| 10 nM | O=C(Cc1ccccc1)Nc1ccc(CCCCc2ccc(NC(=O)Cc3ccccc3)nn2)nn1 |

target: T1, Glutaminase kidney isoform, mitochondrial; assay: Inhibition of GAC (unknown origin) using 1 mM glutamine as substrate preincubated for 10 mins by resorufin dye based assay

| Structure (SMILES) | IC50 |
| --- | --- |
| O=C(Cc1ccccc1)Nc1ccn(CCCCc2nnc(NC(=O)Cc3ccccc3)s2)c(=O)c1 | ≤ 100 nM |
| O=C(Cc1ccccc1)Nc1ccn(CC(F)CCn2cc(C(=O)NCc3cccc(OC(F)(F)F)c3)nn2)c(=O)c1 (centres undefined) | ≤ 100 nM |
| O=C(Cc1ccccc1)Nc1ccn(CCCCc2nnc(NC(=O)Cc3ccccc3)s2)c(=O)n1 | ≤ 100 nM |
| O=C(Cc1ccccn1)Nc1ccc([C@H]2CCN(c3nnc(C(=O)NCc4cc(C(F)(F)F)ccn4)s3)C2)nn1 | 100 to 500 nM |
| O=C(Cc1ccccc1)Nc1ccn(CCCCn2cc(C(=O)NCc3cccc(OC(F)(F)F)c3)nn2)c(=O)c1 | ≤ 100 nM |
| O=C(Cc1ccccc1)Nc1nnc(CCCCc2cc3cc(Cc4ccccc4)[nH]c3nn2)s1 | ≤ 100 nM |
| O=C(Cc1cccc(OC(F)(F)F)c1)Nc1ccc(C2CCN(c3nnc(NC(=O)Cc4ccccn4)s3)C2)nn1 (centres undefined) | ≤ 100 nM |
| O=C(Cc1ccccn1)Nc1ccc([C@@H]2CCN(c3nnc(C(=O)NCc4cc(C(F)(F)F)ccn4)s3)C2)nn1 | ≤ 100 nM |
| O=C(Cc1cccc(OC(F)(F)F)c1)Nc1ccc(CCCCc2nnc(C(=O)NCc3ccccn3)s2)nn1 | < 100 nM |

Now from value to compound:

| IC50 | Structure (SMILES) |
| --- | --- |
| < 100 nM | O=C(NCc1ccccn1)c1cn(CCCCc2nnc(C(=O)NCc3cccc(OC(F)(F)F)c3)s2)nn1 |
| ≤ 100 nM | O=C(Cc1ccccc1)Nc1ccn(CCCCc2cc3cc(Cc4ccccc4)[nH]c3nn2)c(=O)c1 |
| ≤ 100 nM | O=C(NCc1ccccc1)c1cn(CCCCc2cc3cc(Cc4ccccc4)[nH]c3nn2)nn1 |
| ≤ 100 nM | Cc1ccc(CNC(=O)c2cn(CCCCc3cc4cc(-c5ccccc5F)[nH]c4nn3)nn2)cn1 |
| ≤ 100 nM | O=C(Cc1ccccc1)Nc1ccc(CCCCn2ccc(NC(=O)Cc3ccccc3)nc2=O)nn1 |
| ≤ 100 nM | O=C(Cc1cccc(OC(F)(F)F)c1)Nc1ccc(N2CCC(c3nnc(NC(=O)Cc4ccccn4)s3)C2)nn1 (centres undefined) |
| ≤ 100 nM | O=C(Cc1ccccc1)Nc1ccn(CCC(F)Cn2cc(C(=O)NCc3cccc(OC(F)(F)F)c3)nn2)c(=O)c1 (centres undefined) |

target: not listed separately; assay: Inhibition of mouse brain glutaminase assessed as ammonia formation using glutamine as substrate by Nessler's reagent based assay

| IC50 | Structure (SMILES) |
| --- | --- |
| 50 to 100 nM | O=C(Cc1cccc(OC(F)(F)F)c1)Nc1ccc(CCCCc2nnc(NC(=O)Cc3ccccn3)s2)cn1 |

target: T2, Glutaminase kidney isoform, mitochondrial (Mus musculus, UniProt D3Z7P3); assay: Inhibition of mouse kidney glutaminase assessed as ammonia formation using glutamine as substrate by Nessler's reagent based assay
T2 sequence (D3Z7P3 whole entry): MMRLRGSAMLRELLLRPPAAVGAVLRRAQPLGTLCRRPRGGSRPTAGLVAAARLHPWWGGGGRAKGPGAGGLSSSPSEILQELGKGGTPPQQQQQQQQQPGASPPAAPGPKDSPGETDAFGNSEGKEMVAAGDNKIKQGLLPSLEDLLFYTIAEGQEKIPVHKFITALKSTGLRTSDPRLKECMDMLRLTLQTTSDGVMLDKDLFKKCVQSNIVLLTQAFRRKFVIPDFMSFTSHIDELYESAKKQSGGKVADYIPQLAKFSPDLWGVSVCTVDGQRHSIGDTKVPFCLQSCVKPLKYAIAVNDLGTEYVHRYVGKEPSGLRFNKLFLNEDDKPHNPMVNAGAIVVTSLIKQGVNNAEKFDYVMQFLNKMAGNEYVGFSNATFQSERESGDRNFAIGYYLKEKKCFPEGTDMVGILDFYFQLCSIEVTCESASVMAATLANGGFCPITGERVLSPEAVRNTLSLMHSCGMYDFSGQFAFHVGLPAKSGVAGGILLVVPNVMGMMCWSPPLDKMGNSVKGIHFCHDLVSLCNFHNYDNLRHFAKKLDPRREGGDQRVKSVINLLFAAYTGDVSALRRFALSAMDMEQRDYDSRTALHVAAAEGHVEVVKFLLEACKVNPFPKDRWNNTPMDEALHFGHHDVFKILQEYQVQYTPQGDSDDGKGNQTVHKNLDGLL

| IC50 | Structure (SMILES) |
| --- | --- |
| 50 to 100 nM | O=C(Cc1cccc(OC(F)(F)F)c1)Nc1ccc(CCCCc2nnc(NC(=O)Cc3ccccn3)s2)cn1 |

target: not listed separately; assay: (§1) Inhibition of mouse brain glutaminase assessed as ammonia formation at 0.1 uM using glutamine as substrate by Nessler's reagent based assay relative to control

| IC50 | Structure (SMILES) |
| --- | --- |
| < 25 nM | O=C(Cc1cccc(OC(F)(F)F)c1)Nc1ccc(CC2CC(c3nnc(NC(=O)Cc4ccccn4)s3)C2)nn1 (centres undefined) |
| < 50 nM | O=C(Cc1ccccn1)Nc1ccc(N2CCC(c3nnc(NC(=O)Cc4cccc(OC(F)(F)F)c4)s3)CC2)nn1 |
| < 50 nM | O=C(Cc1cccc(OC(F)(F)F)c1)Nc1ccc(N2CCC(c3nnc(NC(=O)Cc4ccccn4)s3)CC2)nn1 |
| 50 to 200 nM | O=C(Cc1cccc(OC(F)(F)F)c1)Nc1ccc(N2CCCC(c3nnc(NC(=O)Cc4ccccn4)s3)C2)nn1 (centres undefined) |
| 1000 to 2000 nM | O=C(Cc1cccc(OC(F)(F)F)c1)Nc1ccc(N2CCC(c3nnc(NC(=O)Cc4ccccn4)s3)CC2)cn1 |

species: Mus musculus; assay: as §1

| inhibition | Structure (SMILES) |
| --- | --- |
| < 25% | O=C(Cc1cccc(OC(F)(F)F)c1)Nc1cnc(CCCCc2nnc(NC(=O)Cc3ccccn3)s2)cn1 |

target: T3, Glutaminase kidney isoform, mitochondrial (Mus musculus) (UniProt D3Z7P3); assay: (§2) Inhibition of mouse kidney glutaminase assessed as ammonia formation at 0.1 uM using glutamine as substrate by Nessler's reagent based assay relative to control
T3 sequence (whole entry): T2 sequence (D3Z7P3 whole entry)

| inhibition | Structure (SMILES) |
| --- | --- |
| < 25% | O=C(Cc1cccc(OC(F)(F)F)c1)Nc1cnc(CCCCc2nnc(NC(=O)Cc3ccccn3)s2)cn1 |

target: T2, Glutaminase kidney isoform, mitochondrial; assay: as §2

| IC50 | Structure (SMILES) |
| --- | --- |
| < 25 nM | O=C(Cc1cccc(OC(F)(F)F)c1)Nc1ccc(CC2CC(c3nnc(NC(=O)Cc4ccccn4)s3)C2)nn1 (centres undefined) |
| < 50 nM | O=C(Cc1ccccn1)Nc1ccc(N2CCC(c3nnc(NC(=O)Cc4cccc(OC(F)(F)F)c4)s3)CC2)nn1 |
| < 50 nM | O=C(Cc1cccc(OC(F)(F)F)c1)Nc1ccc(N2CCC(c3nnc(NC(=O)Cc4ccccn4)s3)CC2)nn1 |
| 50 to 200 nM | O=C(Cc1cccc(OC(F)(F)F)c1)Nc1ccc(N2CCCC(c3nnc(NC(=O)Cc4ccccn4)s3)C2)nn1 (centres undefined) |
| 1000 to 2000 nM | O=C(Cc1cccc(OC(F)(F)F)c1)Nc1ccc(N2CCC(c3nnc(NC(=O)Cc4ccccn4)s3)CC2)cn1 |

target: T1, Glutaminase kidney isoform, mitochondrial; assay: Inhibition of kidney-type glutaminase in human BT20 cells assessed as reduction in glutamate level; type: cell-based

| Structure (SMILES) | IC50 |
| --- | --- |
| Cn1ccc(CC(=O)Nc2nnc([C@H]3C[C@]4(C[C@H](c5nnc(NC(=O)Cc6ccn(C)n6)s5)C4)C3)s2)n1 (some centres undefined) | 0.5 nM |
| O=C(Cc1cccc(OC(F)(F)F)c1)Nc1ccc(C[C@H]2C[C@@H](c3nnc(NC(=O)Cc4ccccn4)s3)C2)nn1 | 0.2 nM |

Continued, values first:

| IC50 | Structure (SMILES) |
| --- | --- |
| 0.1 nM | O=C(Cc1cccc(OC(F)(F)F)c1)Nc1ccc(C[C@@H]2CC[C@H](c3nnc(NC(=O)Cc4ccccn4)s3)C2)nn1 |
| 2.7 nM | Cn1ccc(CC(=O)Nc2nnc([C@H]3C[C@@]4(C[C@H](c5nnc(NC(=O)Cc6ccn(C)n6)s5)C4)C3)s2)n1 (some centres undefined) |

target: T1, Glutaminase kidney isoform, mitochondrial; assay: Inhibition of human KGA (63 to 669 residues) preincubated for 15 mins using 50 mM glutamine as substrate by resorufin dye based assay

| IC50 | Structure (SMILES) |
| --- | --- |
| 40 nM | CO[C@H](C(=O)Nc1nnc(N[C@@H]2CCN(c3cc(Cl)cnn3)C2)s1)c1ccccc1 |
| 100 nM | O=C(Nc1nnc(N[C@@H]2CCN(c3cccnn3)C2)s1)[C@@H](c1cccc(OC(F)(F)F)c1)N1CCC1 |
| 25 nM | CO[C@H](C(=O)Nc1ccc(N2CC[C@@H](Nc3cccnn3)C2)nn1)c1cccc(OC(F)F)c1 |
